Laboratory results reported in patent US7605131B2, “EML4-ALK fusion gene” (Astellas Pharma Inc., priority 2007, dated 2009).
Values belong to the compound of their own block, whether it stands above or below them.

Columns and labels:
[1] = target: T1, EML4-ALK fusion polypeptide v3 (Homo sapiens, UniProt Q9UM73, D1529E/I1461V/K1491R); assay: In vitro autophosphorylation of purified EML4-ALK fusion polypeptide v3 (immunoblot, anti-phosphorylated ALK antibody); type: biochemical; design: expresses both EML4-ALK fusion polypeptide v3 having the FLAG tag at the N-terminus and CD8; made in house; host or cells: mouse BA/F3 cells infected with FLAG-EML4-ALKv3/pMX-iresCD8 retrovirus
T1 sequence (Q9UM73 with tags, fused parts or gaps I1461V/K1491R/D1529E): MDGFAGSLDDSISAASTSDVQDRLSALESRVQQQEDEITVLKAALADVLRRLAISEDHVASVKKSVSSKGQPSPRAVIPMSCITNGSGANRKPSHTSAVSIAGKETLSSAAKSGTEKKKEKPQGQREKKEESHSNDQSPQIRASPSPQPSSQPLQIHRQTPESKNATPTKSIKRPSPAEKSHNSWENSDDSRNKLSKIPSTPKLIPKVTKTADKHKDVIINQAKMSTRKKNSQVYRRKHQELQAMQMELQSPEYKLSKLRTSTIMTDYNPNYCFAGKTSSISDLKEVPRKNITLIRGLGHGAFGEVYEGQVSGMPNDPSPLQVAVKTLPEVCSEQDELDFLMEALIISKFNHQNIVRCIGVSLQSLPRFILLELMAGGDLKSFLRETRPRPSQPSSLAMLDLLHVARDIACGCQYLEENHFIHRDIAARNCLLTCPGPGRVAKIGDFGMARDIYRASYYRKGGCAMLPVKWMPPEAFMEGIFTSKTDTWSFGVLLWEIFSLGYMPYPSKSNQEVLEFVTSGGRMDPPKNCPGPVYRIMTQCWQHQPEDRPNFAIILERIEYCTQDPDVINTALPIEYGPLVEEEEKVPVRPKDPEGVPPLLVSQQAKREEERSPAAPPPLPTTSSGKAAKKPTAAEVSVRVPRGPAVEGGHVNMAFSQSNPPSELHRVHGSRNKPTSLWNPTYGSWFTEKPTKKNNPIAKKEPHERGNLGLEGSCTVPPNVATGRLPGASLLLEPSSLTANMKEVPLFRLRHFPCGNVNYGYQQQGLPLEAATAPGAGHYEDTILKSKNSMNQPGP
Protocol: (§1) A recombinant retrovirus was produced according to a method of previous report (BBRC 356, 723-726, 2007) using FLAG-EML4-ALKv3/pMX-iresCD8. Mouse lymphatic cell line BA/F3 cells were infected therewith. The EML4-ALK fusion polypeptide v3 expressing BA/F3 cells were cultured in RPM1640 medium containing 10% of fetal bovine serum. To prepare the EML4-ALK fusion polypeptide v3, about 2×10^9 cells were collected. After washing 3 times with PBS, cells were lysed in a lysis solution (50 mM Tris.HCl (pH7.4), 150 mM NaCl, 1% Triton X100, 5 mM EDTA, 5 mM EGTA, 1 mM NaVO4, 1 mM DTT and protease inhibitor cocktail complete). The EML4-ALK fusion polypeptide v3 present in the supernatant obtained after a centrifugation was purified using ANTI-FLAG M2 Affinity Gel (SIGMA-ALDRICH Inc) according to the method described in the product information document. For washing and elution, the washing solution (50 mM Tris.HCl (pH7.4), 250 mM NaCl, 0.05% Brij35, 1 mM EDTA, 1 mM EGTA, 1 mM NaVO4, 1 mM DTT, complete) and the elution solution (50 mM Tris.HCl (pH7.4), 150 mM NaCl, 0.05% Brij35, 1 mM DTT, 0.5 mg/mL FLAG peptide) were used, respectively. Immunoblotting using anti-ALK antibody and anti FLAG M2 antibody (SIGMA-ALDRICH Inc.) and silver staining were carried out for the eluate to detect the EML4-ALK fusion polypeptide v3.
(§2) The EML4-ALK fusion polypeptide v3 purified as described above was diluted in a reaction solution (15 mM Tris HCl (pH7.4), 0.25 mM MgCl2, 0.01% Tween-20, 2 mM DTT), and then ATP was not added or ATP 20 μM was added. The respective mixtures were reacted at room temperature for 1 hour. After the reaction, the auto phosphorylated EML4-ALK fusion polypeptide v3 and the EML4-ALK fusion polypeptide v3 were detected by immunoblotting using anti-phosphorylated ALK antibody, which recognizes specifically the product phosphorylated at the 1604th tyrosine residue of ALK, and anti-ALK antibody, and quantitated by an image analysis system (VersaDoc Imaging System; Bio-Rad Inc.). […]

[2] = target: T1, EML4-ALK fusion polypeptide v3; assay: In vitro phosphorylation of peptide substrate by purified EML4-ALK fusion polypeptide v3 (HTRF KinEASE-TK); type: biochemical; design: expresses both EML4-ALK fusion polypeptide v3 having the FLAG tag at the N-terminus and CD8; made in house; host or cells: mouse BA/F3 cells infected with FLAG-EML4-ALKv3/pMX-iresCD8 retrovirus; settings: TK substrate 1
Protocol: as §1, §2

[3] = target: T1, EML4-ALK fusion polypeptide v3; assay: Intracellular autophosphorylation of EML4-ALK fusion polypeptide v3 in v3 expressing 3T3 cells; type: cell-based; settings: 4 hours
From the text: The EML4-ALK fusion polypeptide v3 expression vector (designated as EML4-ALKv3/pMXS) was constructed by subcloning the insert of the EML4-ALKv3/pT7Blue-2 in pMXS plasmid (JBC 275, 24945-24952, 2000). Also, using the EML4-ALKv3/pT7Blue-2, an expression vector (designated as FLAG-EML4-ALKv3/pMX-iresCD8) which expresses both EML4-ALK fusion polypeptide v3 having the FLAG tag at the N-terminus and CD8 was constructed by subcloning the insert in pMX-iresCD8 plasmid (JBC 276, 39012-39020, 2001). The 3T3 cells transfected with the EML4-ALKv3/pMXS described above were inoculated subcutaneously to nude mice at 5×10^6 cells/mouse and observed after 20 days. […] Hereinafter, the 3T3 cells in which EML4-ALK fusion polypeptide v3 is expressed are designated as the v3 expressing 3T3 cells.

v3 expressing 3T3 cells = assay: Anchorage independent growth of v3 expressing 3T3 cells (spheroid plate, CellTiter-Glo); type: cell-based
Protocol: Measurement for anchorage independent cell growth (colony method, etc) has been known to be a system for investigating an antitumor effect (pharmacologic effect) of compounds (Clinical Oncology, second edition, Cancer and Chemotherapy Publishers Inc.). In place of the colony method, there is a following method using spheroid plates for measuring the growth of non-attached cells.
(§3) The v3 expressing 3T3 cells (Example 2) were seeded to a 96 well spheroid plate (Sumilon Celltight Spheroid 96U, Sumitomo Bakelite Inc.) at 3000 cells per well in a medium (Invitrogen) containing 10% fetal bovine serum. […] At the same time, cells were counted before the addition of drugs (Day 0). Then, cells were cultured under 5% CO2, at 37° C. for 3 days, mixed with a reagent for measuring cell number (CellTiter-Glo™ Luminescent Cell Viability Assay; Promega Inc.) stirred for 20 minutes, and the measurements (day 3) were carried out using a luminometer (ML3000 microtiter plate luminometer; Dynatech Laboratories Inc.).

NPM-ALK = target: T2, NPM-ALK (Homo sapiens, UniProt Q9UM73); settings: reported in Laboratory investigation 2005, Vol. 85, p. 1544-1554; cited from earlier work
T2 construct: the other entry of the earlier key: NPM1 (P06748, Nucleophosmin)
T2 sequence (Q9UM73 with tags, fused parts or gaps): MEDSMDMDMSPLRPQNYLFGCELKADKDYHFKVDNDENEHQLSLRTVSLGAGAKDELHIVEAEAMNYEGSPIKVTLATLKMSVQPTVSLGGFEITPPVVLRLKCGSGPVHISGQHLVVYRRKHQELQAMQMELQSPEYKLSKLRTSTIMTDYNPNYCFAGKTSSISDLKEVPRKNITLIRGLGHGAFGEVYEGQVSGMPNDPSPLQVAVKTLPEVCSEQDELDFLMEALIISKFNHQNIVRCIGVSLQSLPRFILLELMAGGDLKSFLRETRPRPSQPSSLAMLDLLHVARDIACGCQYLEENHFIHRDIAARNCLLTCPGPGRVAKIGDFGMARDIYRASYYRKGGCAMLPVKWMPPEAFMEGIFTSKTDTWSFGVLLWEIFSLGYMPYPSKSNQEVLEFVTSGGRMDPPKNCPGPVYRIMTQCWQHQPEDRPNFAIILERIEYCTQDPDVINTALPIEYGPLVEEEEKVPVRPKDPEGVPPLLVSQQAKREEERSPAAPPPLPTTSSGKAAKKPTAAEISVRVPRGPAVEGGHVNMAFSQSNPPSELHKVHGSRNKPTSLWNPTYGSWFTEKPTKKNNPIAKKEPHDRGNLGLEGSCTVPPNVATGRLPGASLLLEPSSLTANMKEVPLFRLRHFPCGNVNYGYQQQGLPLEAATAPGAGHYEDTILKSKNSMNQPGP

NCI-H2228 cells = assay: Anchorage independent growth of NCI-H2228 cells (spheroid plate); type: cell-based, human
Protocol: as §3
DMSO (control) or compound A-D was added to the NCI-H2228 cells at 10 μM or 30 nM and this investigation was performed by a similar manner described as in Example 5, except cells were cultured for 5 days after the addition of drugs.

NCI-H2228 = assay: Anti-tumor test against NCI-H2228 subcutaneous tumor in NOD/SCID mice; type: in vivo; settings: 10 mg/kg orally once a day for 14 days, solvent group start day = 100% inhibition, finish day = 0%
Protocol: 3×10^6 cells of NCI-H2228 suspended in 50% BD Matrigel™ (BD Biosciences) in PBS were inoculated subcutaneously by injection to the back of 5 weeks old male NOD/SCID mice (Japan Charles River Inc.). […] Administrations were performed once a day for 14 days, and body weight and tumor size were measured every three or four day. Tumor volume was calculated using the following formula. [Tumor volume (mm^3)]=[Tumor major axis (mm)]×[tumor minor axis (mm)]^2×0.5

[4] = Mus musculus, NIH3T3, read-out: Inhibitory activity on v3 expressing 3T3 cells
[5] = Homo sapiens, NCI-H2228, read-out: Inhibitory activity on NCI-H2228 cells

Compound: COc1cc(N2CCC(N3CCN(C)CC3)CC2)ccc1Nc1ncc(Cl)c(Nc2ccccc2S(=O)(=O)C(C)C)n1 [Compound C, 5-chloro-N^4-[2-(isopropylsulfonyl)phenyl]-N^2-{2-methoxy-4-[4-(4-methylpiperazin-1-yl)piperidin-1-yl]phenyl}pyrimidine-2,4-diamine]
Inhibition rate of tumor growth (tumor volume) of NCI-H2228 (NCI-H2228): 132%
inhibition at 0.03 µM (v3 expressing 3T3 cells; [4]): 182%
inhibition at 0.03 µM (NCI-H2228 cells; [5]): 137%

Compound: CNS(=O)(=O)c1ccccc1Nc1nc(Nc2ccc(N3CCN(C)CC3)cc2OC)ncc1Br [D, 2-[(5-bromo-2-{[2-methoxy-4-(4-methylpiperazin-1-yl)phenyl]amino}pyrimidin-4-yl)amino]-N-methylbenzenesulfonamide]
inhibition at 0.01 µM ([1]; final concentration 10 nM): 107%
inhibition at 0.01 µM ([2]; final concentration 10 nM): 98%
inhibition at 0.01 µM ([3]; NIH3T3, final concentration 10 nM): 106%
inhibition at 0.03 µM (v3 expressing 3T3 cells; [4]): 206%
inhibition at 0.03 µM (NCI-H2228 cells; [5]): 141%

Compound: COc1cc2ncnc(Nc3ccc(O)cc3)c2cc1OC [WHI-P131, 4-(4′-Hydroxyphenyl)amino-6,7-dimethoxyquinazoline]
Inhibition of the activity of NPM-ALK (NPM-ALK): inhibit the activity of NPM-ALK

Continued, in another order:

Inhibition on autophosphorylation ([1]; final concentration 10 μM): 100%
Inhibition on peptide substrate ([2]; final concentration 10 μM): 98%
Inhibition on autophosphorylation (v3 expressing 3T3 cells) ([3]; final concentration 10 μM): 94%
Compound: COc1cc2ncnc(Nc3ccc(O)c(Br)c3)c2cc1OC [A, 4-[(3′-Bromo-4′-hydroxyphenyl)amino]-6,7-dimethoxyquinazoline]
Inhibitory activity on v3 expressing 3T3 cells (v3 expressing 3T3 cells; final concentration 10 μM, 3 days, cell number at Day 0 = 100% inhibition, Day 3 = 0%): 172%
Inhibition of the activity of NPM-ALK (NPM-ALK): inhibit the activity of NPM-ALK
Inhibitory activity on NCI-H2228 cells (NCI-H2228 cells; final concentration 10 μM, 5 days, cell number at Day 0 = 100% inhibition, Day 5 = 0%): 164%

inhibition at 10 µM ([1]; final concentration 10 μM): 100%
inhibition at 10 µM ([2]; final concentration 10 μM): 77%
inhibition at 10 µM ([3]; NIH3T3, final concentration 10 μM): 76%
Compound: O=C(COc1ccc(OC(F)(F)F)cc1)NCc1nc(C(=O)NCCc2cccc(Cl)c2)cs1 [B, N-[2-(3-chlorophenyl)ethyl]-2-[({[4-(trifluoromethoxy)phenoxy]acetyl}amino)methyl]-1,3-thiazole-4-carboxamide]
inhibition at 10 µM (v3 expressing 3T3 cells; [4]): 53%
inhibition at 10 µM (NCI-H2228 cells; [5]): 102%
